Reference: patent US10934274B2, “Quinoline derivatives as TAM RTK inhibitors” (Qurient Co., Ltd., priority 2015, dated 2021)

Tests used:
[1] = target: T1, Met (Homo sapiens, UniProt P08581); assay: LanthaScreen Eu kinase binding assay, Met; conditions: Tracer 236, read-out: cMet kinase binding activity (Kd)
T1 construct: purchased Life Technologies

[2] = target: T2, Mer (Homo sapiens, UniProt Q12866); assay: LanthaScreen Eu kinase binding assay, Mer; conditions: Tracer 236
T2 construct: purchased Life Technologies
T2 sequence (Q12866 21-999): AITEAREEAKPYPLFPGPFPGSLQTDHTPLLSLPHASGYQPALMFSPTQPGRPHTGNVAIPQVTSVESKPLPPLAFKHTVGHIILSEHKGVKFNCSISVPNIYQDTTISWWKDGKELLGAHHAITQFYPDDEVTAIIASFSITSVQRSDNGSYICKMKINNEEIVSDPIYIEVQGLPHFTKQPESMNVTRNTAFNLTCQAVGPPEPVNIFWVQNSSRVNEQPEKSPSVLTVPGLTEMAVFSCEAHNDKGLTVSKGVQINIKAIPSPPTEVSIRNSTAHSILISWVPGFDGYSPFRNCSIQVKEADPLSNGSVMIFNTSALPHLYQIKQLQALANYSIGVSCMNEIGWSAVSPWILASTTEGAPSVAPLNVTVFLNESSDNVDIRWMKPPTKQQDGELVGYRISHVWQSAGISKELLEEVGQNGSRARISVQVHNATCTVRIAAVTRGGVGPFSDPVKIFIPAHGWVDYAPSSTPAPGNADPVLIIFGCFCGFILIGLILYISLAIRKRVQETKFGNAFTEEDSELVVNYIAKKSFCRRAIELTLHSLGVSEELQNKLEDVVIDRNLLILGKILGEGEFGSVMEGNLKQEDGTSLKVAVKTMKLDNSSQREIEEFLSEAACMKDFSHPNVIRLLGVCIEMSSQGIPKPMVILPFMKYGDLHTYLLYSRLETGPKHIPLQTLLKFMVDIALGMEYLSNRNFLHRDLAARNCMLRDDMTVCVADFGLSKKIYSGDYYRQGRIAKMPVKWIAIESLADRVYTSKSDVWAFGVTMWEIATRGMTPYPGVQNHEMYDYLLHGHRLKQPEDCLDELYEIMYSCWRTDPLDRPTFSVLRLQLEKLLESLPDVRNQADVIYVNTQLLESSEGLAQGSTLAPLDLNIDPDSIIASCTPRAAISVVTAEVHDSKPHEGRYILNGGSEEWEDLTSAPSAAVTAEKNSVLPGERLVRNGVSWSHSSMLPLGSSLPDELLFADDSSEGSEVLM

[3] = target: T3, Axl (Homo sapiens, UniProt P30530); assay: LanthaScreen Eu kinase binding assay, Axl; conditions: Tracer 236
T3 construct: purchased Life Technologies
T3 sequence (P30530 26-894): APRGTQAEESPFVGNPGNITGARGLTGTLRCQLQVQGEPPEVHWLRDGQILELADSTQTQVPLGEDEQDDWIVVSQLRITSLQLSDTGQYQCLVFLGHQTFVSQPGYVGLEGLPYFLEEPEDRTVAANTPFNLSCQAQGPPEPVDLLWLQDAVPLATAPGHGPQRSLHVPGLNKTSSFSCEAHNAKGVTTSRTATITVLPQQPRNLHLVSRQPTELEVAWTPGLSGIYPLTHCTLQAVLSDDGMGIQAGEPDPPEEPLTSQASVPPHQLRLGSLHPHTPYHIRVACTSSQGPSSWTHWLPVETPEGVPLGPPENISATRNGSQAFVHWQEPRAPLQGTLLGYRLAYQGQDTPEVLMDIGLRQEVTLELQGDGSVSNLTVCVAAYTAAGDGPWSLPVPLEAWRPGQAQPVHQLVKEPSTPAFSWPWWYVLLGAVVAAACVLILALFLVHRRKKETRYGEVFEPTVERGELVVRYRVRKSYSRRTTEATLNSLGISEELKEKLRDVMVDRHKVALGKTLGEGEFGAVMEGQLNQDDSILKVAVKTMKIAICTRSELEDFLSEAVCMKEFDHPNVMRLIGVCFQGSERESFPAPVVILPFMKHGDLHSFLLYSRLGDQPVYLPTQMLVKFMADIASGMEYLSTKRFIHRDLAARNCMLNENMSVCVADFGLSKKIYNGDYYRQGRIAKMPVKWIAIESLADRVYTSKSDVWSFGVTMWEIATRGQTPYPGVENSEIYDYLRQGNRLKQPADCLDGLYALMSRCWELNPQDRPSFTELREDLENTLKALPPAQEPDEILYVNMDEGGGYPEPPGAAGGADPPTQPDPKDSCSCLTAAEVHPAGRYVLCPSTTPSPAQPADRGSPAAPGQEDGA

T1 sequence (P08581 25-1390): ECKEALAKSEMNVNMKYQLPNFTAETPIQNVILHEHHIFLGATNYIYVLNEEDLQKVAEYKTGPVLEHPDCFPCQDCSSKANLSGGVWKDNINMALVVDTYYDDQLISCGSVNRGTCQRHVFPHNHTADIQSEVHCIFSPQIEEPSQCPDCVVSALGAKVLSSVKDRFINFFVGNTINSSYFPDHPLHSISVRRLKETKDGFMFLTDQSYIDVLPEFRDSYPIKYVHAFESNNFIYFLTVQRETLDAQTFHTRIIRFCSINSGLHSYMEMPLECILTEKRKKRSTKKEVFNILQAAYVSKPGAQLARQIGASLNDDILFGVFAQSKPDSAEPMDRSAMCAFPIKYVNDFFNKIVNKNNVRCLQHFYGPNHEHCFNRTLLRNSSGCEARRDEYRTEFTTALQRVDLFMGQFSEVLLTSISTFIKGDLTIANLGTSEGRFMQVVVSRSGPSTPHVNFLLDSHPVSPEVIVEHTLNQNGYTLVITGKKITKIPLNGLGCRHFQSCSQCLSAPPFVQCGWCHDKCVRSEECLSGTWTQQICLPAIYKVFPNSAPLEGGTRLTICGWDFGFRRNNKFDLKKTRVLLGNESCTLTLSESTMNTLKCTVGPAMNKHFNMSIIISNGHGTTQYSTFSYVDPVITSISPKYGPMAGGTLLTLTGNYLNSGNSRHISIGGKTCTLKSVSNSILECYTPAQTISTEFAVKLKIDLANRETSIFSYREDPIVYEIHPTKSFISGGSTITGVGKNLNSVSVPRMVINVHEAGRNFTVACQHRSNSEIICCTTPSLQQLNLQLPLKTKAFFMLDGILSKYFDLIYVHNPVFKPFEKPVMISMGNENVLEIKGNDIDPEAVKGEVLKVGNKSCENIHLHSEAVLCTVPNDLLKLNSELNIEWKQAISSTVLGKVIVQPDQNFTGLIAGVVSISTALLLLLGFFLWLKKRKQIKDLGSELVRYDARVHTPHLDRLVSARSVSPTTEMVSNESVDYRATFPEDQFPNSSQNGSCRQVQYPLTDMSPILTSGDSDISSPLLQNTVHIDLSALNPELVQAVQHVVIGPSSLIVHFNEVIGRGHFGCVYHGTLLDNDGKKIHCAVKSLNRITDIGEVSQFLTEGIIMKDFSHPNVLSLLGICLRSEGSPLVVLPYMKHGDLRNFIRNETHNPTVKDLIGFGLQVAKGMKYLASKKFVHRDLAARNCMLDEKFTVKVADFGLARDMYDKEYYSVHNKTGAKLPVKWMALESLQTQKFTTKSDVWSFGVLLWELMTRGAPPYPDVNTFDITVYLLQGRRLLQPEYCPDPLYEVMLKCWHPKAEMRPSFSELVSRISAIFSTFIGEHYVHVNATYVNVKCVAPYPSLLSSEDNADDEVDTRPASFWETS

Structure (SMILES) | Kd [1] | Kd [2] | Kd [3]
CCOc1cn(-c2cnccc2CO)nc1C(=O)Nc1ccc(Oc2ccnc3cc(OC)c(OC)cc23)c(F)c1 [Compound 207] | < 100 nM | < 100 nM | < 100 nM
CCOc1cn(-c2cnccc2CO)nc1C(=O)Nc1ccc(Oc2ccnc3cc(OC)c(OC)cc23)cc1F [Compound 209] | < 100 nM | < 100 nM | < 100 nM
CCOc1cn(C2CCCN(C)C2)nc1C(=O)Nc1ccc(Oc2ccnc3cc(OC)c(OC)cc23)cc1F (stereo not drawn) [Compound 211] | 100 to 1000 nM | 100 to 1000 nM | 100 to 1000 nM

The remaining lines, values ahead:

Kd [1] | Kd [2] | Kd [3] | Structure (SMILES)
≥ 1000 nM | < 100 nM | < 100 nM | CCOc1cn(-c2cccnc2)nc1C(=O)Nc1ccc(Oc2ccnc3cc(OC(C)CC)c(OC)cc23)cn1 (stereo not drawn) [Compound 206]
< 100 nM | < 100 nM | < 100 nM | CCOc1cn(-c2cccnc2)nc1C(=O)Nc1ccc(Oc2ccnc3cc(OC(C)C)c(OC)cc23)cn1 [Compound 208]
< 100 nM | < 100 nM | < 100 nM | CCOc1cn(-c2cnccc2C)nc1C(=O)Nc1ccc(Oc2ccnc3cc(OC)c(OC)cc23)nn1 [Compound 210]
